According to patent US20080182811A1, “METABOTROPIC GLUTAMATE RECEPTOR ACTIVATOR” (Ajinomoto Co., Inc., priority 2005, published 2008):

Experiments:
Type in all cases: cell-based
[1] = target: T1, group II metabotropic glutamate receptor subtype 3 (mGluR3) (Homo sapiens, UniProt Q14832); experiment: Electrophysiological measurement of response current in Xenopus oocytes injected with mGluR3, GIRK1 and GIRK4 cRNAs; settings: for mgluR3 (receptor activation by amino acid): amino acid alone, 1 mM, oocytes injected with mGluR3, GIRK1, GIRK4 cRNAs; for effect of amino acid (response current value) with cation vs amino acid alone: coexistence with calcium ion (10 mM), FIG. 7; for effect of amino acid (response current value) with cation vs amino acid alone / effect of amino acid (response current value) with nucleic acid and cation vs amino acid alone / effect of amino acid (response current value) with nucleic acid vs amino acid alone: glutamic acid 3 μM, aspartic acid 300 μM, leucine 1 mM; for effect of amino acid (response current value) with cation vs amino acid alone / effect of amino acid (response current value) with nucleic acid and cation vs amino acid alone: cysteine 1 mM; for effect of amino acid (response current value) with nucleic acid and cation vs amino acid alone: coexistence with inosinic acid (1 mM) and calcium ion (10 mM), FIG. 8; for effect of amino acid (response current value) with nucleic acid vs amino acid alone: coexistence with inosinic acid (1 mM), valine 1 mM, FIG. 6
T1 construct: expressed in transfected cells; host or cells: Xenopus oocytes injected with cRNAs of mGluR3, GIRK1 and GIRK4

[2] = target: T2, group I metabotropic glutamate receptor subtype 5 (mGluR5) (Homo sapiens, UniProt P41594); experiment: Electrophysiological measurement of response current in Xenopus oocytes injected with mGluR5 cRNA; settings: aspartic acid 300 μM, valine 3 mM; for mGluR5 (receptor activation by amino acid): amino acid alone, others 10 mM, oocytes injected with mGluR5 cRNA; for mGluR5 (receptor activation by amino acid) / effect of amino acid (response current value) with nucleic acid and cation vs amino acid alone: cysteine 1 mM; for effect of amino acid (response current value) with nucleic acid and cation vs amino acid alone: coexistence with both inosinic acid (1 mM) and calcium ion (10 mM), FIG. 4; for effect of amino acid (response current value) with nucleic acid and cation vs amino acid alone / effect of amino acid (response current value) with cation vs amino acid alone / effect of amino acid (response current value) with nucleic acid vs amino acid alone: glutamic acid 3 μM; for effect of amino acid (response current value) with cation vs amino acid alone: coexistence with calcium ion (10 mM), FIG. 3; for effect of amino acid (response current value) with cation vs amino acid alone / effect of amino acid (response current value) with nucleic acid vs amino acid alone: cysteine 3 mM; for effect of amino acid (response current value) with nucleic acid vs amino acid alone: coexistence with inosinic acid (1 mM), FIG. 2
T2 construct: expressed in transfected cells; host or cells: Xenopus oocytes injected with cRNA
Source text: A metabotropic glutamate receptor subtype 5 (mGluR5) was used as a group I metabotropic glutamate receptor. A metabotropic glutamate receptor subtype 3 (mGluR3) was used as a representative of group II metabotropic glutamate receptors. A metabotropic glutamate receptor subtype 8 (mGluR8) was used as a representative of group III metabotropic glutamate receptors. The genes of the three metabotropic glutamate receptors, G-protein-gated inward rectifier K channel 1 (GIRK1), and G-protein-gated inward rectifier K channel 4 (GIRK4) were prepared as follows.
PCR was performed using a cDNA derived from the human brain (manufactured by Clontech) as a material and using Pfu ultra DNA Polymerase (manufactured by Stratagene) under the following conditions. After a 3-minute reaction at 94° C., a cycle of 94° C./30 seconds, 55° C./30 seconds, and 72° C./2 minutes was repeated 35 times, followed by a 7-minute reaction at 72° C. Amplified PCR products were subjected to agarose gel electrophoresis, stained with a DNA staining reagent and detected by UV irradiation. The lengths of the PCR products were confirmed by comparing the lengths with a DNA marker having a known size, which was electrophoresed simultaneously with the PCR products. A plasmid vector pBR322 was cleaved with a restriction enzyme EcoRV (manufactured by TAKARA BIO INC.). The respective gene fragments amplified by PCR were ligated to the cleaved site using Ligation Kit (manufactured by Promega). Escherichia coli DH5a strain was transformed with the reaction solution, and transformants carrying plasmids where the PCR products were cloned were selected. The PCR amplified products were identified by DNA sequence analysis. The recombinant plasmids were used as a template to prepare cRNA of each of the receptor genes using a cRNA preparation kit (Ambion, Inc.).
Special grade reagents of twenty-three L-amino acids including alanine, arginine, asparagine, aspartic acid, cysteine, glutamine, glutamic acid, glycine, histidine, isoleucine, leucine, lysine, methionine, phenylalanine, proline, serine, threonine, tryptophan, tyrosine, valine, ornithine, taurine, and hydroxyproline were used. Special grade reagents of inosine and calcium chloride were used. Glutamine and cysteine were prepared every time before use, and the other reagents were prepared and stored at −20° C. A solution for dissolving amino acids, nucleic acids, and cations, a solution for preparing Xenopus oocytes, and a solution for culturing Xenopus oocytes have the following composition. NaCl 96 mM/KCl 2 mM/MgCl2 1 mM/CaCl2 1.8 mM/Hepes 5 mM/pH 7.2.
Ca ion concentration-dependent Cl ion current measurement method using a Xenopus oocyte expression system was used as a method of measuring the signaling via a metabotropic glutamate receptor. The abdomen of a Xenopus were incised, and the egg mass was removed and treated with a 1% collagenase solution at 20° C. for 2 hours, to thereby obtain individual oocytes. To one oocyte was introduced 50 nl of 1 μg/μl receptor cRNA or 50 nl of distilled water using a microcapillary, followed by culture at 18° C. for 2 or 3 days. This culture was performed using a solution obtained by adding 2 mM pyruvic acid, 10 U/ml penicillin, and 10 μg/ml streptomycin to the solution shown in Example 2. After completion of culture, a ligand solution was added to oocytes injected with the cRNA and oocytes injected with distilled water, respectively. Electrophysiological measurement was performed using an amplifier Geneclamp 500 (manufactured by Axon Instruments, Inc.) and recording software AxoScope 9.0 (manufactured by Axon Instruments, Inc.). The oocytes were subjected to membrane potential fixation at −70 mV by a two-electrode membrane potential fixation method, and intracellular currents via Ca ion concentration-dependent Cl ion were measured. The maximal value of the intracellular currents was defined as a response current value.

[3] = target: T3, group III metabotropic glutamate receptor subtype 8 (mGluR8) (Homo sapiens, UniProt O00222); experiment: Electrophysiological measurement of response current in Xenopus oocytes injected with mGluR8, GIRK1 and GIRK4 cRNAs; settings: cysteine 1 mM; for mgluR8 (receptor activation by amino acid): amino acid alone, aspartic acid 300 μM, valine 3 mM, others 10 mM, oocytes injected with mGluR8, GIRK1, GIRK4 cRNAs; for effect of amino acid (response current value) with nucleic acid and cation vs amino acid alone: coexistence with both inosinic acid (1 mM) and calcium ion (10 mM), FIG. 12; for effect of amino acid (response current value) with nucleic acid and cation vs amino acid alone / effect of amino acid (response current value) with cation vs amino acid alone / effect of amino acid (response current value) with nucleic acid vs amino acid alone: glutamic acid 3 μM; for effect of amino acid (response current value) with cation vs amino acid alone: coexistence with calcium ion (10 mM), FIG. 11; for effect of amino acid (response current value) with nucleic acid vs amino acid alone: coexistence with inosinic acid (1 mM), FIG. 10
T3 construct: expressed in transfected cells; host or cells: Xenopus oocytes injected with cRNAs of mGluR8, GIRK1 and GIRK4
T3 sequence (O00222 34-908): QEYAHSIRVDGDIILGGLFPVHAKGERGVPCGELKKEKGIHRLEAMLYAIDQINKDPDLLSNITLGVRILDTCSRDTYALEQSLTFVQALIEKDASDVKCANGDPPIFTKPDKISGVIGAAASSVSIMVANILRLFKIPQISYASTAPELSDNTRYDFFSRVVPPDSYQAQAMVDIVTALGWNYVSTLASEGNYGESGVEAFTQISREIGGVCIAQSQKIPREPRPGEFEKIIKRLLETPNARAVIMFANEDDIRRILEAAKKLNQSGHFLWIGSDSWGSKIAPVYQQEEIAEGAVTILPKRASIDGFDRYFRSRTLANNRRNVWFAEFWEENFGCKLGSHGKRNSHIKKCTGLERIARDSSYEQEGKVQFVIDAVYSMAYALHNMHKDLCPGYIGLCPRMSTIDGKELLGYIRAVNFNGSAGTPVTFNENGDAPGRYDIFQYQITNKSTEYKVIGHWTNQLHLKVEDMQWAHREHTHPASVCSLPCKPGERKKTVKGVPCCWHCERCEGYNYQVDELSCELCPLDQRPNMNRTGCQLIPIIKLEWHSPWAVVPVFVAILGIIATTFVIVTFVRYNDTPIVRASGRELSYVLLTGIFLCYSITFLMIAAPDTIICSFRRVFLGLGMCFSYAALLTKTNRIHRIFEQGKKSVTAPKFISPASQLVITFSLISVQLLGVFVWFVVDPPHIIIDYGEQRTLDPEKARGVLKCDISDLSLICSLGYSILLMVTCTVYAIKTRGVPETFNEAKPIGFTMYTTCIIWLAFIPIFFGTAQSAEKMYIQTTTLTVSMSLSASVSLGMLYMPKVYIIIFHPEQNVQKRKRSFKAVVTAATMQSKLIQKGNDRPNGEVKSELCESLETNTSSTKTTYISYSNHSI

T2 sequence (P41594 21-1180 isoform P41594-2 limits assumed): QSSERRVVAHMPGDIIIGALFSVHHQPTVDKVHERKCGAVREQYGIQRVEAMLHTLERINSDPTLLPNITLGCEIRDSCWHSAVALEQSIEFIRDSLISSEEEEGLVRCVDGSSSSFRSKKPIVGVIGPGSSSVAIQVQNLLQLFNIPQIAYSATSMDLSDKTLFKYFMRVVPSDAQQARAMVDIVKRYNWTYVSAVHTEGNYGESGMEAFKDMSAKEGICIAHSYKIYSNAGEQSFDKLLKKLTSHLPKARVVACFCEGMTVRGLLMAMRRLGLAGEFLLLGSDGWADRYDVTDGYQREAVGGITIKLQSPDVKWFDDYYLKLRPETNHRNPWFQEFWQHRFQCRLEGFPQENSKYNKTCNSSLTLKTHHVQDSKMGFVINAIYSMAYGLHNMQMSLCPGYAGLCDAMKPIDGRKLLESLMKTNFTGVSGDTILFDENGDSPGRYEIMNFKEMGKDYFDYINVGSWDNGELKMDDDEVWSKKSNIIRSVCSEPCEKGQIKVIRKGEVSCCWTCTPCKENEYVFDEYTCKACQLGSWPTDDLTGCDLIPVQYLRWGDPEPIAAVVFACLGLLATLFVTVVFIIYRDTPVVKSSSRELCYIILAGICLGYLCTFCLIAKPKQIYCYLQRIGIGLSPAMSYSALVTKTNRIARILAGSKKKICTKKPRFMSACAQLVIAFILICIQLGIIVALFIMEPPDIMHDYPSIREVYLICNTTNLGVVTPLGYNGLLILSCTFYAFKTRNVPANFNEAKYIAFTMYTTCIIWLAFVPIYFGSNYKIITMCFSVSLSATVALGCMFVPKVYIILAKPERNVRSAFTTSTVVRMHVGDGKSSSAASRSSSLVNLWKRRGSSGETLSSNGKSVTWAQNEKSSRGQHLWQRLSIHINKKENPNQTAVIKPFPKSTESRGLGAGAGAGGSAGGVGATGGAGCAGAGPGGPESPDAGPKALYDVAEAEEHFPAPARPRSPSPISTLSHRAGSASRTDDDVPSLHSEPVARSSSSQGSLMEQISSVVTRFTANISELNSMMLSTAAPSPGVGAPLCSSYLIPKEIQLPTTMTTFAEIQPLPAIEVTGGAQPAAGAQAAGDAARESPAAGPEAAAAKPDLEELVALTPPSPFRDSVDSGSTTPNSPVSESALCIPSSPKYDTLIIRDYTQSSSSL
T1 sequence (Q14832 23-879): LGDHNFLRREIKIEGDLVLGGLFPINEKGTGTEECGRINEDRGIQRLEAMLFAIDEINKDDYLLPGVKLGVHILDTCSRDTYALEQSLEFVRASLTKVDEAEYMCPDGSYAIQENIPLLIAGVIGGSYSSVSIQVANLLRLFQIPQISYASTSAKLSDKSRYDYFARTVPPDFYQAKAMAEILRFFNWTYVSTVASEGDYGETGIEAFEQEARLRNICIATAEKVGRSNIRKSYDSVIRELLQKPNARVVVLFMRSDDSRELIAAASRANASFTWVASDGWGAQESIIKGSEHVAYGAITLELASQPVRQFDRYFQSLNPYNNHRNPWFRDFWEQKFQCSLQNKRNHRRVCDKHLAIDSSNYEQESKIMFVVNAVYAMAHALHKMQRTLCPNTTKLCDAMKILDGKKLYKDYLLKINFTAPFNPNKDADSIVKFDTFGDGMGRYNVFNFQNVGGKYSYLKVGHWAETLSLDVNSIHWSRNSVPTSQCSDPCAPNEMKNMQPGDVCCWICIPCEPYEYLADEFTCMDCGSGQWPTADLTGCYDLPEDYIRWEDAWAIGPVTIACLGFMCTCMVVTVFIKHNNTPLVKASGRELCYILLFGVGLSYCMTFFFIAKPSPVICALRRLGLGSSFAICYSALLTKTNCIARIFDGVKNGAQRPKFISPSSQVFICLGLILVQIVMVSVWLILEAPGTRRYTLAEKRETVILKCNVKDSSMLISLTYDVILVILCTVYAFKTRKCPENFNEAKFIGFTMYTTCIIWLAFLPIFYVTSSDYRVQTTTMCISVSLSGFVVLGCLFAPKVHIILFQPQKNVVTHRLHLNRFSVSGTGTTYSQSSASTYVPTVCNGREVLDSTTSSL

| mgluR3 (receptor activation by amino acid) [1] | effect of amino acid (response current value) with cation vs amino acid alone [1] | effect of amino acid (response current value) with nucleic acid and cation vs amino acid alone [1] | effect of amino acid (response current value) with nucleic acid vs amino acid alone [1] | mGluR5 (receptor activation by amino acid) [2] | effect of amino acid (response current value) with nucleic acid and cation vs amino acid alone [2] | effect of amino acid (response current value) with cation vs amino acid alone [2] | effect of amino acid (response current value) with nucleic acid vs amino acid alone [2] | Compound | mgluR8 (receptor activation by amino acid) [3] | effect of amino acid (response current value) with nucleic acid and cation vs amino acid alone [3] | effect of amino acid (response current value) with cation vs amino acid alone [3] | effect of amino acid (response current value) with nucleic acid vs amino acid alone [3] | further results |
| --- | --- | --- | --- | --- | --- | --- | --- | --- | --- | --- | --- | --- | --- |
| Activated | enhanced | enhanced | enhanced | Activated | enhanced | enhanced | enhanced | N[C@@H](CC(=O)O)C(=O)O [Aspartic acid, aspartic acid] |  |  |  |  | mgluR3 (receptor activation by amino acid) ([1]; listed as aspartic acid): effects of enhancing the activation; mGluR5 (receptor activation by amino acid) ([2]; listed as aspartic acid): effects of enhancing |
| Activated |  |  | enhanced | Activated | enhanced | enhanced | enhanced | CC(C)[C@H](N)C(=O)O [Valine, valine] |  |  |  |  | mgluR3 (receptor activation by amino acid) ([1]; listed as valine): effects of enhancing the activation; mGluR5 (receptor activation by amino acid) ([2]; listed as valine): effects of enhancing |
| Activated | enhanced | enhanced |  | Activated | enhanced | enhanced | enhanced | N[C@@H](CS)C(=O)O [Cysteine, cysteine] | Activated | enhanced | enhanced | enhanced | mgluR8 (receptor activation by amino acid) ([3]; listed as cysteine): effects of activating; mgluR3 (receptor activation by amino acid) ([1]; listed as cysteine): effects of enhancing the activation; mGluR5 (receptor activation by amino acid) ([2]; listed as cysteine): effects of enhancing |

| Compound | mgluR3 (receptor activation by amino acid) [1] | effect of amino acid (response current value) with cation vs amino acid alone [1] | effect of amino acid (response current value) with nucleic acid and cation vs amino acid alone [1] | effect of amino acid (response current value) with nucleic acid vs amino acid alone [1] | mGluR5 (receptor activation by amino acid) [2] | effect of amino acid (response current value) with nucleic acid and cation vs amino acid alone [2] | effect of amino acid (response current value) with cation vs amino acid alone [2] | effect of amino acid (response current value) with nucleic acid vs amino acid alone [2] | mgluR8 (receptor activation by amino acid) [3] | effect of amino acid (response current value) with nucleic acid and cation vs amino acid alone [3] | effect of amino acid (response current value) with cation vs amino acid alone [3] | effect of amino acid (response current value) with nucleic acid vs amino acid alone [3] | further results |
| --- | --- | --- | --- | --- | --- | --- | --- | --- | --- | --- | --- | --- | --- |
| N[C@@H](CCC(=O)O)C(=O)O [Glutamic acid, glutamic acid, reference compound] | Activated | enhanced | enhanced | enhanced | Activated | enhanced | enhanced | enhanced | Activated | enhanced | enhanced | enhanced | mgluR8 (receptor activation by amino acid) ([3]; listed as glutamic acid): effects of activating; mgluR3 (receptor activation by amino acid) ([1]; listed as glutamic acid): effects of enhancing the activation; mGluR5 (receptor activation by amino acid) ([2]; listed as glutamic acid): effects of enhancing |
